Test results as given in patent CN117899087A, “与g蛋白偶联型雌激素受体结合的治疗乳腺癌的中药提取物及其应用” (Wuxi Hospital of Traditional Chinese Medicine, priority 2024, dated 2024).
“Also recorded” adds a separate entry of the source.

Experiments:
[1] = target: T1, GPER-1 overexpressing 293T cells [GPER-1过表达细胞, 293T细胞系] (Homo sapiens, UniProt Q99527); test: UPLC-QTOF/MS screening of CGD components binding to GPER-1 overexpressing cells; settings: GPER gene overexpressing cell line
T1 construct: expressed in transfected cells; host or cells: 293T (HEK-293T), lentiviral recombinant plasmid system
T1 sequence (Q99527 whole entry): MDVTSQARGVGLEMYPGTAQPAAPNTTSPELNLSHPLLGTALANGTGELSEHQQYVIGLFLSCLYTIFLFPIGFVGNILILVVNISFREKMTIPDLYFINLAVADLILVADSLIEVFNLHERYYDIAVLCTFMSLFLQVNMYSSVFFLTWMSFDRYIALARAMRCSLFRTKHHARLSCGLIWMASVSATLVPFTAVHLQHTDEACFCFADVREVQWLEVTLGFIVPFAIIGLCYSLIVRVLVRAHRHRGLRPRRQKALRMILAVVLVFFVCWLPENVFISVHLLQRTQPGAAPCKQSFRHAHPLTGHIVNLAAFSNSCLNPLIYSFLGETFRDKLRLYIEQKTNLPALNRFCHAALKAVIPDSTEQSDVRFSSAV

[2] = target: T2, GPER target protein [GPER靶蛋白] (Homo sapiens, UniProt Q99527); test: Cellular thermal shift analysis (CESTA) with Western blot; assay type: binding; settings: 10 μM, 24 h, GPER overexpressing HEK-293T
T2 construct: expressed in transfected cells; host or cells: 293T (HEK-293T), lentiviral recombinant plasmid system
T2 sequence (Q99527 whole entry): as above

[3] = tested on: triple-negative breast cancer MDA-MB-231 cells [三阴性乳腺癌MDA-MB-231细胞]; test: MTT assay of MDA-MB-231 cell proliferation; assay type: cell-based; settings: MDA-MB-231, 24 h
GPER = GPER (Homo sapiens, UniProt Q99527); test: GPER activity (conclusion, no separate method); assay type: biochemical
Sequence of GPER (Q99527 whole entry, species assumed): as the sequence (Q99527 whole entry) above

[4] = tested on: retinoid X receptor [类视黄醇X受体]; settings: cited from earlier work

For `CC(C)=CCC[C@@H](C(=O)O)[C@H]1[C@H](O)C[C@@]2(C)C3=CC[C@H]4C(C)(C)[C@@H](O)CC[C@]4(C)C3=CC[C@]12C` [16α-羟基松苓新酸, 16α-Hydroxydehydrotrametenolic acid], the “binding to GPER overexpressing cell line” value [1] was “能与GPER基因过表达细胞系相结合”, the “binding ability to GPER (CESTA)” value [2] was “与GPER具有较强的结合能力; also recorded: 结合能力尤为突出” and the “abundance of GPER target protein after heating vs vehicle” value ([2]; 55 to 70°C) was “丰度高于用载体处理的蛋白质的丰度”. The “stability of target protein” value ([2]; 55 to 70°C) was “增加了靶蛋白的稳定性; also recorded: 能促进GPER靶蛋白的热稳定”, the “inhibition of triple-negative breast cancer cell proliferation at 10 μmol/L” value ([3]; 10 μmol/L) was “具有抑制三阴乳腺癌细胞增殖的能力” and the “inhibition of cancer cell proliferation at 40 μmol/L” value ([3]; 40 μmol/L) was “接近最大抑制能力”. For the same compound, the “inhibition of triple-negative breast cancer cell proliferation” value ([3]; 0.5-100 μmol/L, Fig. 4) was “具有显著的抑制三阴乳腺癌细胞增殖的能力”, the “inhibition at 40 μmol/L compared with 100 μmol/L” value ([3]; 40 vs 100 μmol/L) was “和100μmol/L浓度相当” and the “concentration dependence of cancer cell inhibition” value ([3]; increasing concentration from 10 μmol/L) was “抑制癌细胞的能力随浓度增高而增加”. The GPER activity (GPER) was “提高GPER活性” and the “agonism at retinoid X receptor” value [4] was “天然选择性激动剂”.
